How the values were obtained:
wheat = experiment: Test B postemergence herbicide test; format: in vivo, Triticum aestivum; parameters: key to Wheat plant response rating: 0 = no effect, 100 = complete control; conditions: postemergence
Outline: (§1)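 Plants grow to 1- to 4-leaf stage (2–18 cm) for postemergence spraying, or to 2-leaf stage for the paddy test. Formulated compound is applied. Greenhouse holding lasts 13–15 days. Response is scored visually relative to controls, 0 no effect to 100 complete control; a dash means no result.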

lambsquarters = experiment: Test B pre-/postemergence herbicide test; format: in vivo, Chenopodium album; conditions: for Lambsquarters plant response rating: postemergence
Outline: (§2)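 Seeds were planted and treated preemergence with compounds formulated in a non-phytotoxic solvent mixture containing surfactant, while plants at the 1- to 4-leaf stage (2 to 18 cm) received postemergence sprays. Flooded paddy plants were grown to the 2-leaf stage. After 13 to 15 days in a greenhouse, injury was visually rated 0–100 against untreated controls.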

[1] = tested on: small flower umbrella sedge; experiment: Test B flooded paddy test; format: in vivo, Cyperus difformis; conditions: 1000 g ai/ha, scale 0 to 100 (0 no effect, 100 complete control)
Outline: (§3)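 After treating 2-leaf paddy plants or 2–18 cm postemergence plants (1 to 4 leaves) with formulated chemical, researchers kept them in a greenhouse for 13–15 days. Effects were judged visually versus controls: 0 indicates none, 100 total control.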

corn = experiment: Test B pre-/postemergence herbicide test; format: in vivo, Zea mays; conditions: for Corn plant response rating: postemergence
Outline: as §2

barnyardgrass [2] = experiment: Test B pre-/postemergence herbicide test; format: in vivo, Echinochloa crus-galli; conditions: for Barnyardgrass plant response rating: postemergence
Outline: (§4)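 Flooded paddy rice and barnyardgrass were treated at the 2-leaf stage; upland plantings received compound either on sown seed or on 1- to 4-leaf seedlings. All were kept 13–15 days in a greenhouse and scored visually, 0–100, relative to untreated plants.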

ducksalad = experiment: Test B flooded paddy test; format: in vivo, Heteranthera limosa; conditions: 1000 g ai/ha, scale 0 to 100 (0 no effect, 100 complete control)
Outline: as §3

wild oat = experiment: Test B postemergence herbicide test; format: in vivo, Avena fatua; conditions: postemergence
Outline: as §1

Surinam grass = experiment: Test B pre-/postemergence herbicide test; format: in vivo, Urochloa decumbens; conditions: for Surinam Grass plant response rating: postemergence
Outline: as §2

rice = experiment: Test B flooded paddy test; format: in vivo, Oryza sativa; conditions: 1000 g ai/ha, scale 0 to 100 (0 no effect, 100 complete control)
Outline: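 Visual ratings, 0 (no effect) to 100 (complete control), made versus controls after 13–15 d greenhouse. Paddy plants treated at 2-leaf stage; postemergence plants at 1- to 4-leaf stage, 2–18 cm tall.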

morningglory = experiment: Test B pre-/postemergence herbicide test; format: in vivo, Ipomoea coccinea; conditions: for Morningglory plant response rating: postemergence
Outline: as §4

pigweed = experiment: Test B pre-/postemergence herbicide test; format: in vivo, Amaranthus retroflexus; conditions: for Pigweed plant response rating: postemergence
Outline: as §2

cocklebur = experiment: Test B pre-/postemergence herbicide test; format: in vivo, Xanthium strumarium; conditions: for Cocklebur plant response rating: postemergence
Outline: as §4

barnyardgrass [3] = experiment: Test B flooded paddy test; format: in vivo, Echinochloa crus-galli; conditions: 1000 g ai/ha, scale 0 to 100 (0 no effect, 100 complete control)
Outline: as §3

giant foxtail = experiment: Test B pre-/postemergence herbicide test; format: in vivo, Setaria faberi; conditions: for Foxtail, Giant plant response rating: postemergence
Outline: as §2

large crabgrass = experiment: Test B pre-/postemergence herbicide test; format: in vivo, Digitaria sanguinalis; conditions: for Crabgrass, Large plant response rating: postemergence
Outline: as §2

blackgrass = experiment: Test B postemergence herbicide test; format: in vivo, Alopecurus myosuroides; conditions: postemergence
Outline: as §3

[4] = 125 g ai/ha, visual rating, scale 0 (no effect) to 100 (complete control)
[5] = 500 g ai/ha, scale 0 to 100, 0 is no effect, 100 is complete control
[6] = 125 g ai/ha, 0 is no effect, 100 is complete control, preemergence
[7] = 500 g ai/ha, visual rating, 0 = no effect, 100 = complete control, preemergence
[8] = 125 g ai/ha, 0 = no effect, 100 = complete control, preemergence

CCn1nc(C(C)(C)C)cc1C(=O)Nc1cc(C(=S)N(C)C)ccn1 [Compound 334]
40: Pigweed plant response rating (pigweed; [4])
80: Sedge, Umbrella plant response rating [1] | Plant response rating (0 to 100 scale), Surinam Grass (Surinam grass; [6]) | Rice plant response rating (rice) | Morningglory plant response rating (morningglory; [5])
20: Wheat plant response rating (wheat; [5]) | Plant response rating (0 to 100 scale), Corn (corn; [6]) | Corn plant response rating (corn; [5]) | Oat, Wild plant response rating (wild oat; [4]) | Surinam Grass plant response rating (Surinam grass; [4]) | Cocklebur plant response rating (cocklebur; [4])
70: Lambsquarters plant response rating (lambsquarters; [4]) | Plant response rating, Corn (corn; [7]) | Plant response rating, Morningglory (morningglory; [7]) | Pigweed plant response rating (pigweed; [5]) | Cocklebur plant response rating (cocklebur; [5]) | Blackgrass plant response rating (blackgrass; [5])
50: Surinam Grass plant response rating (Surinam grass; [5]) | Morningglory plant response rating (morningglory; [4]) | Crabgrass, Large plant response rating (large crabgrass; [5])
90: Lambsquarters plant response rating (lambsquarters; [5]) | Plant response rating (0 to 100 scale), Barnyardgrass (barnyardgrass [2]; [6]) | Ducksalad plant response rating (ducksalad) | Barnyardgrass plant response rating (barnyardgrass [3]) | Plant response rating (0 to 100 scale), Foxtail, Giant (giant foxtail; [6]) | Plant response rating (0 to 100 scale), Crabgrass, Large (large crabgrass; [6])
10: Wheat plant response rating (wheat; [4]) | Foxtail, Giant plant response rating (giant foxtail; [4]) | Crabgrass, Large plant response rating (large crabgrass; [4])
60: Barnyardgrass plant response rating (barnyardgrass [2]; [5]) | Plant response rating (0 to 100 scale), Pigweed (pigweed; [6]) | Plant response rating (0 to 100 scale), Cocklebur (cocklebur; [6]) | Foxtail, Giant plant response rating (giant foxtail; [5])
30: Oat, Wild plant response rating (wild oat; [5]) | Blackgrass plant response rating (blackgrass; [4])
100: Plant response rating (0 to 100 scale), Lambsquarters (lambsquarters; [6]) | Plant response rating, Lambsquarters (lambsquarters; [7]) | Plant response rating, Barnyardgrass (barnyardgrass [2]; [7]) | Plant response rating, Surinam Grass (Surinam grass; [7]) | Plant response rating, Pigweed (pigweed; [7]) | Plant response rating, Cocklebur (cocklebur; [7]) | Plant response rating, Foxtail, Giant (giant foxtail; [7]) | Plant response rating, Crabgrass, Large (large crabgrass; [7])
0: Corn plant response rating (corn; [4]) | Barnyardgrass plant response rating (barnyardgrass [2]; [4]) | Plant response rating (0 to 100 scale), Morningglory (morningglory; [6])

CCn1nc(C2(C)CC2)cc1C(=O)Nc1cc(C(=O)N(C)C)ccc1F [Compound 299]
100: Lambsquarters plant response rating (0 to 100 scale) (lambsquarters; [8]) | Plant response rating, Lambsquarters (lambsquarters; [7]) | Lambsquarters plant response rating (lambsquarters; [5]) | Plant response rating, Barnyardgrass (barnyardgrass [2]; [7]) | Surinam Grass plant response rating (0 to 100 scale) (Surinam grass; [8]) | Plant response rating, Surinam Grass (Surinam grass; [7]) | Plant response rating, Morningglory (morningglory; [7]) | Pigweed plant response rating (0 to 100 scale) (pigweed; [8]) | Plant response rating, Pigweed (pigweed; [7]) | Pigweed plant response rating (pigweed; [5]) | Foxtail, Giant plant response rating (0 to 100 scale) (giant foxtail; [8]) | Plant response rating, Foxtail, Giant (giant foxtail; [7]) | Crabgrass, Large plant response rating (0 to 100 scale) (large crabgrass; [8]) | Plant response rating, Crabgrass, Large (large crabgrass; [7])
80: Surinam Grass plant response rating (Surinam grass; [5]) | Morningglory plant response rating (morningglory; [5]) | Foxtail, Giant plant response rating (giant foxtail; [5])
90: Sedge, Umbrella plant response rating [1] | Plant response rating, Corn (corn; [7]) | Barnyardgrass plant response rating (0 to 100 scale) (barnyardgrass [2]; [8]) | Barnyardgrass plant response rating (barnyardgrass [2]; [5]) | Ducksalad plant response rating (ducksalad) | Rice plant response rating (rice) | Pigweed plant response rating (pigweed; [4]) | Barnyardgrass plant response rating (barnyardgrass [3]) | Crabgrass, Large plant response rating (large crabgrass; [5])
0: Corn plant response rating (corn; [4])
70: Morningglory plant response rating (morningglory; [4]) | Cocklebur plant response rating (cocklebur; [5])
60: Plant response rating, Cocklebur (cocklebur; [7])
40: Lambsquarters plant response rating (lambsquarters; [4]) | Oat, Wild plant response rating (wild oat; [5]) | Morningglory plant response rating (0 to 100 scale) (morningglory; [8])
50: Corn plant response rating (0 to 100 scale) (corn; [8]) | Blackgrass plant response rating (blackgrass; [5])
20: Wheat plant response rating (wheat; [4]) | Corn plant response rating (corn; [5]) | Oat, Wild plant response rating (wild oat; [4]) | Surinam Grass plant response rating (Surinam grass; [4]) | Cocklebur plant response rating (0 to 100 scale) (cocklebur; [8]) | Cocklebur plant response rating (cocklebur; [4]) | Blackgrass plant response rating (blackgrass; [4])
10: Barnyardgrass plant response rating (barnyardgrass [2]; [4]) | Foxtail, Giant plant response rating (giant foxtail; [4]) | Crabgrass, Large plant response rating (large crabgrass; [4])
30: Wheat plant response rating (wheat; [5])
